Test results published in the NIST ThermoML archive (doi:10.1016/j.fluid.2011.03.030).

Legend:
[1] = Liquid; for viscosity: Capillary tube (Ostwald / Ubbelohde) method; for mass density: Vibrating tube method; for vapor or sublimation pressure / Normal boiling temperature: Ebulliometric method (Recirculating still)
[2] = xn = mol fraction of the nth substance listed; details: 101 kPa, Liquid; for viscosity: Capillary tube (Ostwald / Ubbelohde) method; for mass density: Vibrating tube method

C1C[C@@H]2[C@H]3CC[C@H](C3)[C@@H]2C1 [exo-tetrahydrodicyclopentadiene]
[1]
Details	mass density, 298.15 K [kg/m3]	mass density, 303.15 K [kg/m3]	mass density, 308.15 K [kg/m3]	mass density, 313.15 K [kg/m3]	viscosity, 298.15 K [mPa·s]	viscosity, 303.15 K [mPa·s]	viscosity, 308.15 K [mPa·s]	viscosity, 313.15 K [mPa·s]
101 kPa	–	927.41	923.48	919.58	–	2.522	2.298	2.107
101.33 kPa	931.4	–	–	–	2.739	–	–	–

[1]
Details	vapor or sublimation pressure [kPa]
396 K	16.64
401.4 K	20.62
413.8 K	30.3
418.3 K	34.79
426.8 K	44.86
431.2 K	50.7
434.5 K	55.76
436.6 K	59.2
439 K	63.22
441.1 K	66.63
442.7 K	69.49
442.8 K	69.77
444.3 K	72.58
445.7 K	75.11
446.1 K	75.89
450 K	83.92
457.3 K	101.1

Details	Normal boiling temperature [°C]
[1]	184.94

C1C[C@@H]2[C@H]3CC[C@H](C3)[C@@H]2C1 [exo-tetrahydrodicyclopentadiene] + CC1CCCCC1
[2]
Details	mass density, 303.15 K [kg/m3]	mass density, 308.15 K [kg/m3]	mass density, 313.15 K [kg/m3]	viscosity, 303.15 K [mPa·s]	viscosity, 308.15 K [mPa·s]	viscosity, 313.15 K [mPa·s]
x2 = 0	927.41	923.48	919.58	2.522	2.298	2.107
x2 = 0.1404	907.42	903.45	899.48	2.047	1.891	1.736
x2 = 0.2593	889.67	885.65	881.63	1.754	1.616	1.475
x2 = 0.3693	872.78	868.72	864.67	1.502	1.386	1.275
x2 = 0.4981	851.85	847.73	843.61	1.258	1.163	1.078
x2 = 0.5813	837.98	833.82	829.66	1.113	1.02	0.963
x2 = 0.6745	821.76	817.58	813.38	0.975	0.897	0.862
x2 = 0.763	805.84	801.58	797.33	0.866	0.798	0.754
x2 = 0.8469	790.22	785.95	781.66	0.772	0.711	0.675
x2 = 0.9245	775.47	771.16	766.83	0.693	0.644	0.612

CC1CCCCC1 [methylcyclohexane]
[1]
Details	mass density, 298.15 K [kg/m3]	mass density, 303.15 K [kg/m3]	mass density, 308.15 K [kg/m3]	mass density, 313.15 K [kg/m3]	viscosity, 298.15 K [mPa·s]	viscosity, 303.15 K [mPa·s]	viscosity, 308.15 K [mPa·s]	viscosity, 313.15 K [mPa·s]
101 kPa	–	760.65	756.29	751.93	–	0.627	0.581	0.554
101.33 kPa	765	–	–	–	0.678	–	–	–

[1]
Details	vapor or sublimation pressure [kPa]
321.9 K	17.91
331.5 K	25.77
336.8 K	31.22
342.3 K	37.99
346.9 K	44.45
350.7 K	50.35
355.2 K	58.09
359.1 K	65.61
362.3 K	72.29
364.8 K	79.09
366.4 K	85.13
369.8 K	92.76
373.9 K	100.7

Details	Normal boiling temperature [°C]
[1]	98.98

CC1CCCCC1 [methylcyclohexane] + C1C[C@@H]2[C@H]3CC[C@H](C3)[C@@H]2C1
[2], x1 = 1
Details	mass density [kg/m3]	viscosity [mPa·s]
303.15 K	760.65	0.627
308.15 K	756.29	0.581
313.15 K	751.93	0.554
